Where two headings read alike, the source gives them in different places. Marks after values point to notes of the source that are not given here.
What was measured:
[1] = test system: RIF-1 murine tumor; assay: RIF-1 murine model of tumor growth delay; assay type: in vivo, mice; settings: for Days Delay (tumor growth delay) / Median (days to 4x) / Days to 4x (Ave ±SE) / T/C (ratio of Days to 4x of treated over untreated controls): IP, imidazoline 100 mg/kg, cis-platin 4 mg/kg, camptothecin 6 mg/kg; for Median (days to 4x): untreated 7.0; for Days to 4x (Ave ±SE): untreated 7.3 ± 0.6; for chemopotentiation of camptothecin: combinational treatment with camptothecin (CPT); for chemopotentiation of camptothecin / chemopotentiation of cis-platin: RIF-1 tumors in mice; for chemopotentiation of cis-platin: combinational treatment with cis-platin (CDDP)
Method: Tumor cells were injected, bilaterally, into the backs of mice. When tumors reached 100 mm^3, the mice were treated with an intraperitoneal injection of the compound. Tumor volumes were measured 3 times a week until they reached 4 times the size they were on the first treatment day. Data is recorded as “Days to 4×’ or ratio of ‘Days to 4×” of the treated over untreated controls.

[2] = molecular target: T1, NF-κB (Homo sapiens, UniProt P19838+Q04206); assay: EMSA of nuclear NF-κB-DNA binding in nuclear extracts of PMA-stimulated Jurkat leukemia T-cells; assay type: cell-based; parameters: endogenous in cells; host or cells: Jurkat leukemia T-cells, clone E6-1 (ATCC), PMA-stimulated; nuclear extract
Method: (§1) All compounds were evaluated for their potential anti-inflammatory activity by examining the activity of NF-κB in vitro in nuclear extracts using the procedure from Breton and Charbot-Fletcher (Breton et al., J. Pharmacol. Exp. Ther. 282 459-466 (1997)). […] The Jurkat cells (1×10^7 cells/mL) are subsequently treated with various concentrations of imidazoline for 30 minutes at 37° C. followed by PMA stimulation (5.0 ng/mL) for an additional 5 hours. Nuclear extracts are incubated for 20 minutes with a double stranded Cy3 labeled NF-κB consensus oligonucleotide, 5′-[…]-3′ (SEQ ID NO:1) at room temperature. The crude mixture is loaded on a 5% non-denaturing polyacrylamide gel prepared in 1×Tris borate/EDTA buffer and electrophoresed at 200V for 2 hours. After electrophoresis the gel is analyzed using a phosphorimager (Biorad FX PLUS) for detection of the NF-κB-DNA binding.
EMSA assay for NF-κB-DNA binding was as follows. […] The Jurkat cells (1×10^6 cells/mL) were subsequently treated with various concentrations of the compounds for 30 minutes at 37° C. and 5% CO2 followed by PMA (50 ng/mL) and PHA ([…]) stimulation for an additional 30 minutes. The cells were harvested by centrifugation, washed in ice cold PBS and the nuclear extracts were prepared as previously described (Dignam, et al., Nucl. Acids Res 11: 1475-1489 (1983)). The protein concentration of the extracts was determined according to the Method of Bradford (1976) with BioRad reagents. Nuclear extracts are incubated for 20 minutes at room temperature with a double stranded Cy3 labeled NF-kB consensus oligonucleotide, 5′-[…] CCAGGC-3′ (SEQ ID NO:1). The binding mixture ([…]) contained 10 mM HEPES-NaOH pH 7.9, 4 mM tris-HCl, pH 7.9, 6.0 mM KCl, 1 mM EDTA, 1 mM DTT, 10% glycerol, 0.3 mg/mL bovide serum albumin and […] of poly (dI.dC). The binding mixtures ([…] of nuclear extract protein) were incubated for 20 minutes at room temrperature with 0.16 pmol of Cy3 labeled oligonucleotide. The mixture was loaded on a 4% polyacrylamide gel prepared in 1× tris borate/EDTA buffer and was electrophoresed at 200 V for 20 minutes. After electrophoresis the gel was analyzed using a phosphorimager (Biorad FX plus) for detection of the NF-kB—DNA binding.

[3] = molecular target: T1, NF-κB; assay: IC50 values in Mammalian Jurkat cells Leukemia T cells; assay type: cell-based; parameters: endogenous in cells; host or cells: Jurkat leukemia T-cells, clone E6-1 (ATCC), PMA-stimulated; nuclear extract; settings: concentration at which 50% of the protein/enzyme is inhibited in cells
Method: as §1
IC50 values in Mammalian Jurkat cells Leukemia T cells: IC50 value is defined as the concentration of compounds at which 50% of the protein/enzyme is inhibited in cells (Table 3).

[4] = test system: CEM cells; settings: for sensitization of CEM cells towards camptothecin: camptothecin 0.1 μM
Method: Imidazolines 28-33 were evaluated for their ability to enhance the activity of camptothecin in CEM cells. Induction of apoptosis is the hallmark of most chemotherapeutic agents including camptothecin. The systematic disassembly of apoptotic cells is accomplished by active caspases (Thornberry et al., Nature 356: 768-774 (1992); Nicholson et al., Trends Biochem. Sci. 22: 299-306 (1997)). A standard apoptosis assay is Promega's APO-ONE homogeneous caspase-3/7 assay, which takes advantage of this caspase activity to directly quantify the induction of apoptosis in cells (Thornberry et al., Nature 356: 768-774 (1992); Nicholson et al., Trends Biochem. Sci. 22: 299-306 (1997)). According to the hypothesis that NF-κB inhibition should enhance the activity of chemotherapeutic agents via the inhibition of anti-apoptotic signaling pathway—thus enhancement of apoptosis—(Boland, Biochem Soc Trans 29: 674-678 (2001); Chiao et al., Cancer 95: 1696-1705 (2002)), we investigated the effects of the imidazolines using this caspase-3/7 assay. This assay quantifies the level of apoptotic cell death induced by camptothecin with and without the imidazolines and will establish the direct level of enhancement of apoptosis by camptothecin.
Induction of apoptosis using caspase 3/7 assay was as follows. CEM cells (CCRF-CEM); Amer. Type Culture Collection, Rockville, Md.) were grown in RPMI-1640 Media (Gibco-BRL, Rockville, Md.) supplemented with 10% fetal bovine serum, penicillin (614 ηg/mL), streptomycin (10 μg/mL) and hepes buffer, pH 7.2 at 37° C., 5% CO2. DMSO was used as the vector for all drugs and added in the control experiments. Cell cultures were treated with 1 μM, 0.1 μM or 10 nM of the imidazolines and allowed to incubate at 37° C., 5% CO2. An aliquote was transferred to a 96-well plate and mixed with an equal volume of Apo-ONE™ Homogenous Caspase-3/7 assay (Promega Corporation) reagent. The contents of the plate were gently mixed and allowed to incubate for 1 hour. The fluorescence of each well was then measured on a Molecular Imager FX Pro at 532 nm. All reported data was the average of two independent experiments unless otherwise indicated.

[5] = molecular target: T1, NF-κB; assay: EMSA of camptothecin activated NF-κB in CEM leukemia T-cells; assay type: cell-based; parameters: endogenous in cells; nuclear extract; settings: camptothecin 10 μM to 10 nM, 2 hours
Method: CEM cells were incubated with and without varying concentrations of camptothecin (CPT). Positive controls included PMA/PHA activation (FIG. 11, lane 2). Lane 3 included a positive control using PMA/PHA activation followed by the treatment of the extract with a NF-κB p65 antibody to unambiguously identify the NF-κB/DNA complex.
CEM cells were treated with various concentration of imidazoline 32, 30 minutes prior to activation by camptothecin (0.1 μM). […] Control lanes include: DNA only (lane 1), PMA/PHA activated NF-κB (lane 2), PMA/PHA activated NF-κB treated with a p65 antibody, which provide a supershift (lane 3) and the unactivated control (lane 4).
EMSA assay for NF-κB-DNA binding was as follows. […] The cells were harvested by centrifugation, washed in ice cold PBS and the nuclear extracts were prepared as previously described (Dignam, et al., Nucl. Acids Res 11: 1475-1489 (1983)). The protein concentration of the extracts was determined according to the Method of Bradford (1976) with BioRad reagents. Nuclear extracts are incubated for 20 minutes at room temperature with a double stranded Cy3 labeled NF-kB consensus oligonucleotide, 5′-[sequence] […] The binding mixture (25 mL) contained 10 mM HEPES-NaOH pH 7.9, 4 mM tris-HCl, pH 7.9, 6.0 mM KCl, 1 mM EDTA, 1 mM DTT, 10% glycerol, 0.3 mg/mL bovide serum albumin and 1 mg of poly (dI.dC). The binding mixtures (10 mg of nuclear extract protein) were incubated for 20 minutes at room temrperature with 0.16 pmol of Cy3 labeled oligonucleotide. The mixture was loaded on a 4% polyacrylamide gel prepared in 1× tris borate/EDTA buffer and was electrophoresed at 200 V for 20 minutes. After electrophoresis the gel was analyzed using a phosphorimager (Biorad FX plus) for detection of the NF-kB—DNA binding.

[6] = IP, doses 5.0 and 50 mg/kg
Method: Prior to the combinatorial studies, the toxicity of the compounds was determined in the mouse model. […] In short, the drugs are dissolved in DMSO and 100 μL given to the mice on day 0 by intraperitoneal injection (IP). […] Weight and death were the two measures of toxicity.

T1 sequence (Q04206 whole entry): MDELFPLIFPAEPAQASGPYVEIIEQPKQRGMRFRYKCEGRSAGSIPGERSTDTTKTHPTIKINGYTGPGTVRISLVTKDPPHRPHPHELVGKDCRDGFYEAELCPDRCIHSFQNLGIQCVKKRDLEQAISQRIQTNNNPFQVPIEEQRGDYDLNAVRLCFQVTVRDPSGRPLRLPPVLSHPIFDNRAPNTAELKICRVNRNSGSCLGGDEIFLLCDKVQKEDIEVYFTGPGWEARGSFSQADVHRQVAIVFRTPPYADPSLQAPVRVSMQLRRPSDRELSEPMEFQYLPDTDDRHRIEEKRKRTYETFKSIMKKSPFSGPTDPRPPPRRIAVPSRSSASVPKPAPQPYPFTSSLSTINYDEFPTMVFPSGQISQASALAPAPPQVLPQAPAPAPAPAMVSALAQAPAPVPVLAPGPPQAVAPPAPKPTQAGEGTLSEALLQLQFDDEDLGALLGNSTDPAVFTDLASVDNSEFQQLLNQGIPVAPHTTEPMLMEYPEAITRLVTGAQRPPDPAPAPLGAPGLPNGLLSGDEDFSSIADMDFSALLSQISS
T1 sequence (P19838 1-433 limits assumed): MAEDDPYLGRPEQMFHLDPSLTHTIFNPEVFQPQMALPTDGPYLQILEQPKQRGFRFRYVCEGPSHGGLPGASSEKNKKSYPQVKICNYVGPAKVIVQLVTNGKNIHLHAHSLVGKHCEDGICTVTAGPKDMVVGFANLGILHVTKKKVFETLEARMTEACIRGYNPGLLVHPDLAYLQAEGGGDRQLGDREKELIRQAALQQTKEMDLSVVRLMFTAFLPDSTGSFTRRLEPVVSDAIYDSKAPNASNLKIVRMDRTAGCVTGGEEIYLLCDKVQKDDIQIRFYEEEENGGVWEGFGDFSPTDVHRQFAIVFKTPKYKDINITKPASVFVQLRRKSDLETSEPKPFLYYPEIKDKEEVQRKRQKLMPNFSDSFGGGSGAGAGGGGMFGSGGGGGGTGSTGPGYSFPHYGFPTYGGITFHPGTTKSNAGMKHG

C[C@]1(C(=O)O)N=C(c2ccccc2)N(c2ccc(F)cc2)[C@H]1c1ccccc1 (racemic) [Compound 3, Dl-(3S,4S)-1-(4-Fluorophenyl)-4-methyl-2,5-diphenyl-4,5-dihydro-1H-imidazole-4-carboxylic acid]
Days Delay (tumor growth delay) [1]: -0.20 days
Median (days to 4x) [1]: 6.8 days
Days to 4x (Ave ±SE) [1]: 7.6 ± 1.0 days
chemopotentiation of camptothecin [1]: no significant chemopotentiation
chemopotentiation of cis-platin [1]: no significant chemopotentiation
inhibition at 1 µM ([2]; compound 1.0 μM): 35%
IC50 [3]: 6.5 nM

CCOC(=O)[C@H]1N(c2ccc(F)cc2)C(c2ccccc2)=N[C@]1(C)C(=O)O (racemic) [Compound 8, Dl-(3S,4S)-1-(4-Fluorophenyl)-4-methyl-2-phenyl-4,5-dihydro-1H-imidazole-4,5-dicarboxylic acid 5-ethyl ester]
% inhibition of NF-κB ([2]; compound 0.1 μM (100 nM)): 88%
% inhibition of NF-κB ([2]; compound 1.0 μM): 94%

CC[C@@]1(O)C(=O)OCc2c1cc1n(c2=O)Cc2cc3ccccc3nc2-1 [Camptothecin, camptothecin, reference compound]
Days Delay (tumor growth delay) [1]: 3.79 days
T/C (ratio of Days to 4x of treated over untreated controls) [1]: 1.4
Median (days to 4x) [1]: 10.8 days
Days to 4x (Ave ±SE) [1]: 10.3 ± 0.6 days
Fold enhancement of camptothecin (0.1 μM) after 48 hours ([4]; CEM cells, imidazoline 1.0 μM + CPT 0.1 μM versus CPT 0.1 μM): 1.00
NF-κB/DNA binding due to NF-κB activation [5]: significant amount of NF-κB/DNA binding

O=C(O)C1(Cc2c[nH]c3ccccc23)N=C(c2ccccc2)N(Cc2ccccc2)C1c1ccccc1 (racemic) [Compound 5, Dl-(3S,4S)-1-Benzyl-4-(1H-indol-3-ylmethyl)-2,5-diphenyl-4,5-dihydro-1H-imidazole-4-carboxylic acid]
% inhibition of NF-κB ([2]; compound 1.0 μM): 0%

C[C@]1(C(=O)O)N=C(c2ccccc2)N(Cc2ccccc2)[C@H]1c1ccccc1 (racemic) [Compound 1, Dl-(3S,4S)-1-Benzyl-4-methyl-2,5-diphenyl-4,5-dihydro-1H-imidazole-4-carboxylic acid]
Days Delay (tumor growth delay) [1]: -0.57 days
Median (days to 4x) [1]: 6.4 days
Days to 4x (Ave ±SE) [1]: 6.5 ± 0.3 days
chemopotentiation of camptothecin [1]: no significant chemopotentiation
chemopotentiation of cis-platin [1]: no significant chemopotentiation
inhibition at 1 µM ([2]; compound 1.0 μM): 19%
IC50 [3]: 1950 nM

N.N.[Cl][Pt][Cl] [Cis-platin, cis-platin, reference compound]
Days Delay (tumor growth delay) [1]: 0.82 days
T/C (ratio of Days to 4x of treated over untreated controls) [1]: 1.1
Median (days to 4x) [1]: 7.8 days
Days to 4x (Ave ±SE) [1]: 8.1 ± 0.4 days

C[C@]1(C(=O)O)N=C(c2ccccc2)N(Cc2ccccc2)[C@H]1c1ccccc1 (racemic) [Compound 33, dl-(4S,5S)-1-Benzyl-4-methyl-2,5-diphenyl-4,5-dihydro-1H-imidazole-4-carboxylic acid]
tolerability in mice [6]: well tolerated

C[C@]1(C(=O)O)N=C(c2ccccc2)N(Cc2ccccc2)[C@H]1c1ccncc1 (racemic) [Compound 31, dl-(4S,5S)-1-Benzyl-4-methyl-2-phenyl-5-pyridin-4yl-4,5-dihydro-1H-imidazole-4-carboxylic acid]
Apoptosis (±S.D.) [4]: 1.18 ± 0.00^b
sensitization of CEM cells towards camptothecin ([4]; 0.01 μM imidazoline): sensitization
sensitization of CEM cells towards camptothecin ([4]; 0.1 μM imidazoline): sensitization
sensitization of CEM cells towards camptothecin ([4]; 1 μM imidazoline): sensitization

CCOC(=O)[C@@]1(C)N=C(c2ccccc2)N(Cc2ccccc2)[C@H]1c1ccncc1 (racemic) [Compound 9, Dl-(3S,4S)-1-Benzyl-4-methyl-2-phenyl-5-pyridin-4-yl-4,5-dihydro-1H-imidazole-4-carboxylic acid ethyl ester]
% inhibition of NF-κB ([2]; compound 0.1 μM (100 nM), 0.1 µM): 71%

CCOC(=O)[C@H]1N(c2ccc(F)cc2)C(c2ccccc2)=N[C@]1(C)C(=O)O (racemic) [Compound 29, dl-(4S,5S)-1-(4-Fluorophenyl)-4-methyl-2-phenyl-4,5-dihydro-1H-imidazole-4,5-dicarboxylic acid 5-ethyl ester]
Apoptosis (±S.D.) ([4]; Compound 1.0 μm alone, T-cells, 48 hour period, cells only = 1.00 (normalized)): 0.95 ± 0.24

COc1ccc([C@@H]2N(Cc3ccccc3)C(c3ccccc3)=N[C@]2(C)C(=O)O)cc1 (racemic) [Compound 2, Dl-(3S,4S)-1-Benzyl-5-(4-methoxyphenyl)-4-methyl-2-phenyl-4,5-dihydro-1H-imidazole-4-carboxylic acid]
inhibition at 1 µM ([2]; compound 1.0 μM): 68%
IC50 [3]: 40 nM

CCOC(=O)C1(C)N=C(c2ccccc2)N(Cc2ccccc2)C1c1ccccc1 (racemic) [Compound 10, Dl-(3S,4S)-1-Benzyl-4-methyl-2,5-diphenyl-4,5-dihydro-1H-imidazole-4-carboxylic acid ethyl ester]
% inhibition of NF-κB ([2]; compound 0.1 μM (100 nM)): 22%

CCOC(=O)[C@H]1N(c2ccc(F)cc2)C(c2ccccc2)=N[C@@]1(C(=O)O)c1ccccc1 (racemic) [Compound 30, dl-(4S,5S)-1-(4-Fluorophenyl)-2,4-diphenyl-4,5-dihydro-1H-imidazole-4,5-dicarboxylic acid 5-ethyl ester]
Apoptosis (±S.D.) [4]: 1.18 ± 0.20
sensitization of CEM cells towards camptothecin ([4]; 0.01 μM imidazoline): sensitization
sensitization of CEM cells towards camptothecin ([4]; 0.1 μM imidazoline): sensitization
sensitization of CEM cells towards camptothecin ([4]; 1 μM imidazoline): sensitization
